According to patent US11773078B2, “Furin inhibitors” (Glaxosmithkline Intellectual Property Development Limited, priority 2018, dated 2023):

Key:
[1] = molecular target: T1, Furin (108-574-Tev-Flag-His) enzyme (Homo sapiens, UniProt P09958); assay: Furin enzyme assay; format: biochemical
T1 construct: Furin (108-574-Tev-Flag-His) enzyme was expressed and purified from CHO cells; TEV cleavage site (C); FLAG (C); His (C); made in house; host or cells: CHO cells
Outline: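 Compounds ran as 11-point threefold dilutions (0.00017–10 μM final) against 40 pM furin, purified from CHO cells, for 2 h at room temperature. Buffer: 100 mM HEPES pH7.5 with 1 mM CaCl2 and 0.005% Triton X-100. Envision readout. Four-parameter curve gives pXC50.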

[2] = molecular target: T2, furin (endogenous protease) in U20S cells (Homo sapiens, UniProt P09958); assay: Furin cell-based assay (image-based, Golgi-targeted GFP with BMP10 furin/PCSK cleavage site); conditions: 24-hour incubation, read-out: furin golgi cell pXC50 (converted);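 further: Read-out is mean GFP fluorescence of Golgi puncta per cell by high-content imaging, retained when furin inhibited, over an eleven-point 0.00017–10 µM series, four-parameter fit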
T2 construct: the endogenous protease cleaves GFP; endogenous in cells; host or cells: U2OS cells transduced with a BacMam reporter
T2 sequence (P09958 108-794): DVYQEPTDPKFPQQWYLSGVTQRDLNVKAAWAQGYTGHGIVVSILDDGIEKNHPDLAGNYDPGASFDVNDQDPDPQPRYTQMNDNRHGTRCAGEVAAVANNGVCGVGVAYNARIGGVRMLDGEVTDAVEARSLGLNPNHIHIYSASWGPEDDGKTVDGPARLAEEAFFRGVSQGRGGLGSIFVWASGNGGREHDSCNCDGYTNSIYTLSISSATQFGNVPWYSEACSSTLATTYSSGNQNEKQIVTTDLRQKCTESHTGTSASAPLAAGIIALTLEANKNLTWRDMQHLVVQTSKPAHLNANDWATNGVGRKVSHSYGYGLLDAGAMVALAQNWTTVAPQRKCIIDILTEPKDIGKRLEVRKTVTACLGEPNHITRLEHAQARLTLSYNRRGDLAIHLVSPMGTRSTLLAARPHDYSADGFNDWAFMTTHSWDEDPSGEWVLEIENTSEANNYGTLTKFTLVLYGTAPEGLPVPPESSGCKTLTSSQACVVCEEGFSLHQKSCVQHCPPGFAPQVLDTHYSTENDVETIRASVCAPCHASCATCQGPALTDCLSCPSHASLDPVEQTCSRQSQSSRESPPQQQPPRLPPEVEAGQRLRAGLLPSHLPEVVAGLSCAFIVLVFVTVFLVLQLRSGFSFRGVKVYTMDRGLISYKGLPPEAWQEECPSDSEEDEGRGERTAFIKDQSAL

T1 sequence (P09958 108-574): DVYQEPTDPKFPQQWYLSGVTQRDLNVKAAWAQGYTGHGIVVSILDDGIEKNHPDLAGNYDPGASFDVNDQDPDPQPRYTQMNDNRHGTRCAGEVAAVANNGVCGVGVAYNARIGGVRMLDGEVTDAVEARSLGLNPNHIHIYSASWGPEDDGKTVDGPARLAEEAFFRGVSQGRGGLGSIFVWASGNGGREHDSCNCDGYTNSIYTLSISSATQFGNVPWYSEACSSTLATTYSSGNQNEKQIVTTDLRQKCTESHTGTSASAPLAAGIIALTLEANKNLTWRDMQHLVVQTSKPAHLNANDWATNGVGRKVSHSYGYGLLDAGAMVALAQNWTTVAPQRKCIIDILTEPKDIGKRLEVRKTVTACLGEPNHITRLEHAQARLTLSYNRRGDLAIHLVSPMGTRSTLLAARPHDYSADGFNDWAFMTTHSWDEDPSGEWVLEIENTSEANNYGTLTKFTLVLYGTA

| furin enzyme pIC50 [1] | EC50 [2] [nM] | IC50 ([1]; read-out: furin enzyme pIC50 (converted)) [nM] | SMILES |
| --- | --- | --- | --- |
| 9.1 | 25.1 | – | CC(=O)NCC1CCN(Cc2cc(Oc3cnc(N4CCN(CC(C)C(=O)O)CC4)nc3)nc(-c3cc(Cl)cc(Cl)c3)c2)CC1 (stereo not drawn) [Example 283, 3-(4-(5-((4-((4-(acetamidomethyl)piperidin-1-yl)methyl)-6-(3,5-dichlorophenyl)pyridin-2-yl)oxy)pyrimidin-2-yl)piperazin-1-yl)-2-methylpropanoic acid] |
| 10.1 | 1.26 | – | CC(=O)NCC1CCN(Cc2cc(Oc3cnc(N4CCN(CC(C)C(N)=O)CC4)nc3)nc(-c3cc(Cl)cc(Cl)c3)c2)CC1 (stereo not drawn) [Example 284, 3-(4-(5-((4-((4-(acetamidomethyl)piperidin-1-yl)methyl)-6-(3,5-dichlorophenyl)pyridin-2-yl)oxy)pyrimidin-2-yl)piperazin-1-yl)-2-methylpropanamide] |
| 8.1 | 63.1 | – | CC(=O)NCC1CCN(Cc2cc(Oc3cnc(N4CCN(CCS(C)(=O)=O)CC4)nc3)nc(-c3cc(Cl)cc(Cl)c3)c2)CC1 [Example 285, N-((1-((2-(3,5-dichlorophenyl)-6-((2-(4-(2-(methylsulfonyl)ethyl)piperazin-1-yl)pyrimidin-5-yl)oxy)pyridin-4-yl)methyl)piperidin-4-yl)methyl)acetamide] |
| 9.4 | 7.94 | – | CC(=O)NCC1CCN(Cc2cc(Oc3cnc(N4CCN(CCS(N)(=O)=O)CC4)nc3)nc(-c3cc(Cl)cc(Cl)c3)c2)CC1 [Example 286, N-((1-((2-(3,5-dichlorophenyl)-6-((2-(4-(2-sulfamoylethyl)piperazin-1-yl)pyrimidin-5-yl)oxy)pyridin-4-yl)methyl)piperidin-4-yl)methyl)acetamide] |
| – | 631 | 2 | CC(=O)NCC1CCN(Cc2cc(Oc3ccc(N4CCN(CCS(=O)(=O)O)CC4)nc3)nc(-c3cc(Cl)cc(Cl)c3)c2)CC1 [Example 287, 2-(4-(5-((4-((4-(acetamidomethyl)piperidin-1-yl)methyl)-6-(3,5-dichlorophenyl)pyridin-2-yl)oxy)pyridin-2-yl)piperazin-1-yl)ethanesulfonic acid] |
| 9.4 | 50.1 | – | CCC(CN1CCN(c2ccc(Oc3cc(CN4CCC(CNC(C)=O)CC4)cc(-c4cc(Cl)cc(Cl)c4)n3)cn2)CC1)C(=O)O (stereo not drawn) [Example 288, 2-((4-(5-((4-((4-(acetamidomethyl)piperidin-1-yl)methyl)-6-(3,5-dichlorophenyl)pyridin-2-yl)oxy)pyridin-2-yl)piperazin-1-yl)methyl)butanoic acid] |
| 8.6 | 5.01 | – | CC(=O)NCC1CCN(Cc2cc(Oc3ccc(N4CCN(CCS(N)(=O)=O)CC4)nc3)nc(-c3cc(Cl)cc(Cl)c3)c2)CC1 [Example 289, N-((1-((2-(3,5-dichlorophenyl)-6-((6-(4-(2-sulfamoylethyl)piperazin-1-yl)pyridin-3-yl)oxy)pyridin-4-yl)methyl)piperidin-4-yl)methyl)acetamide] |
| 8.2 | 15.8 | – | CNC(=O)NCC1CCN(Cc2cc(Oc3ccc(N4CCN(CCS(C)(=O)=O)CC4)nc3)nc(-c3cc(Cl)cc(Cl)c3)c2)CC1 [Example 290, 1-((1-((2-(3,5-dichlorophenyl)-6-((6-(4-(2-(methylsulfonyl)ethyl)piperazin-1-yl)pyridin-3-yl)oxy)pyridin-4-yl)methyl)piperidin-4-yl)methyl)-3-methylurea] |
| 10.7 | 7.94 | – | CNC(=O)NCC1CCN(Cc2cc(Oc3cnc(N4CCN(CC(C)C(N)=O)CC4)nc3)nc(-c3cc(Cl)cc(Cl)c3)c2)CC1 (stereo not drawn) [Example 291, 3-(4-(5-((6-(3,5-dichlorophenyl)-4-((4-((3-methylureido)methyl)piperidin-1-yl)methyl)pyridin-2-yl)oxy)pyrimidin-2-yl)piperazin-1-yl)-2-methylpropanamide] |
